According to paper PMC12191924, “A new naphthalene-based fluorogenic substrate for cytochrome P450 4A11” (Biochemical Journal, 2025):
Where two headings read alike, the source gives them in different places.

Test system: pooled human liver microsomes (HLM)
Assay: Substrate saturation profiles of MONACRA metabolism by pooled HLM, global fitting
Assay type: in vitro ADME
Settings: for Km: global fitting of seven pooled HLM preparations
From the text: To probe the MONACRA metabolism by the human liver P450 system, we explored the SSPs of our new fluorogenic substrate by seven different pooled HLM preparations with P450 pool composition characterized by a global proteomics toolkit. […] The first two principal components cover 99.4% of the overall differences between the individual SSPs. While the first principal component mainly reflects the differences in SSP amplitude, the second PC is responsible for the changes in the contribution of the high- and low-affinity components. Global fitting of the dataset with a combination of three Michaelis–Menten equations yielded the components with K M values of 21, 213, and 730 µM (Figure 10C). The combinations of these three Michaelis–Menten components approximate all individual SSPs of the dataset with a square correlation coefficient (R ^2) higher than 0.998.
Figure 10: Substrate saturation profiles (SSPs) of 3-(6-methoxynaphthalen-2-yl)acrylic acid (MONACRA) metabolism by seven pooled preparations of human liver microsomes (HLMs) and their global analysis. The HLM preparations used in this study and their designations are described in the “Materials and Methods” section of the article. […] These two principal components cover 99.4% of the overall differences between the SSPs. […] The substance label MONACRA is taken from the axis title, as no other label is printed.
This study used preparations of pooled HLMs from 50, 150, or 200 donors (mixed gender). The preparations CDN, DNJ, and WGP were INVITROCYP 150-Donor Human Liver Microsomes obtained from BioIVT Corporation (Westbury, NY). Lot EGW is INVITROCYP M-Class 50-Donor HLM procured from the same company. Lots 1,910,096 and 1,210,347 were XTreme 200 Mixed Gender HLM (200 donors) purchased from XenoTech LLC (Kansas City, KS), currently a part of BioIVT. Lot 2,110,263 corresponds to mixed gender HLM from 50 donors from the same company. These lots are referred to herein as X096, X347, and X263, respectively. The supplier of the HLM preparations used in our studies, BioIVT Corporation, has declared to adhere to the regulations of the Department of Health and Human Services for the protection of human subjects (45 CFR §46.116 and §46.117) and Good Clinical Practice, (ICH E6) in obtaining the samples of human tissues used for producing the preparations of human subcellular fractions available from these companies.
The MONACRA metabolism experiments were conducted with 12 MONACRA stock solutions in the Incubation Buffer (0.1 M Hepes buffer pH 7.4 containing 60 mM KCl) with concentrations ranging from 0 to 3.3 mM prepared with serial dilution. A 0.3 M stock solution of MONACRA in DMSO was diluted by the Incubation Buffer to prepare the most concentrated (3.3 mM) solution in the series. This series of stock solutions provided the MONACRA concentrations in the incubation mixture decreasing from 825 to 0 µM with a dilution factor of 1.73333 (≈√3). The procedure of preparing the multiwell plates for activity assays was similar to that described earlier for FA-based assays. The prepared plate was placed into a heater-shaker module with a PCR-plate adapter in location 1 of the OT-2 deck. Suspensions of microsomes were diluted to the desired concentration (0.02–0.1 µM P450 for recombinant enzymes and 0.3–1 mg/ml for HLM samples) and placed into all eight wells of the first row of a PCR plate (96-well semi-skirted PCR plate, BrandTech Scientific Inc., Essex, CT), 255 µl per well. The PCR plate was inserted into a pre-cooled PCR-plate cooling block (Eppendorf, Hamburg, Germany) and placed at position 5 of the OT-2 deck. An Azzota deep-well plate placed in location 6 contained 0.4 ml of 0.3 M solution trichloroacetic acid as a quenching reagent. The second row of the same plate contained 0.6 ml of 2.4 molar Na-glycine buffer, pH 10.4. […]

[1] = across seven pooled HLM preparations

For COc1ccc2cc(C=CC(=O)O)ccc2c1 [MONACRA, 3-(6-methoxynaphthalen-2-yl)acrylic acid], the “F 1 (fractional contribution of high-affinity phase)” value (HLM sample CDN) was 0.1%, the “F 2 (fractional contribution of middle-affinity phase)” value (HLM sample CDN) was 68.7% and the “F 3 (fractional contribution of low-affinity phase)” value (HLM sample CDN) was 31.2%. For the same compound, the “F 1 (fractional contribution of high-affinity phase)” value (HLM sample DNJ) was 0.5%, the “F 2 (fractional contribution of middle-affinity phase)” value (HLM sample DNJ) was 91.6% and the “F 3 (fractional contribution of low-affinity phase)” value (HLM sample DNJ) was 7.9%. For the same compound, the “F 1 (fractional contribution of high-affinity phase)” value (HLM sample EGW) was 2.5%, the “F 2 (fractional contribution of middle-affinity phase)” value (HLM sample EGW) was 97.5% and the “F 3 (fractional contribution of low-affinity phase)” value (HLM sample EGW) was 0.0%. For the same compound, the “F 1 (fractional contribution of high-affinity phase)” value (HLM sample WGP) was 0.0%, the “F 2 (fractional contribution of middle-affinity phase)” value (HLM sample WGP) was 34.4% and the “F 3 (fractional contribution of low-affinity phase)” value (HLM sample WGP) was 65.6%. The “F 1 (fractional contribution of high-affinity phase)” value (HLM sample X096) was 9.8%, the “F 2 (fractional contribution of middle-affinity phase)” value (HLM sample X096) was 0.0% and the “F 3 (fractional contribution of low-affinity phase)” value (HLM sample X096) was 90.2%. For the same compound, the “F 1 (fractional contribution of high-affinity phase)” value (HLM sample X263) was 21.7%, the “F 2 (fractional contribution of middle-affinity phase)” value (HLM sample X263) was 21.5% and the “F 3 (fractional contribution of low-affinity phase)” value (HLM sample X263) was 56.8%. For the same compound, the “fraction of the high-affinity phase, average” value [1] was 5.5%, the “fraction of the lowest affinity component, average” value [1] was 45.3% and the “fraction of the lowest affinity component, range” value [1] was 0–90%. For the same compound, the “fraction of the middle-affinity phase, average” value [1] was 49.2%, the “fraction of the middle-affinity phase, range” value [1] was 0–100% and the Km (read-out: KM of high-affinity Michaelis–Menten component) was 21 µM. It also gave a Km (read-out: KM of low-affinity Michaelis–Menten component) of 730 µM and a Km (read-out: KM of middle-affinity Michaelis–Menten component) of 213 µM.
